From article PMC10652111, “Zymograph profiling reveals a divergent evolution of sirtuin that may originate from class III enzymes” (The Journal of Biological Chemistry, 2023)

Biological target: T1, STM1221 (Salmonella enterica, UniProt P0A2F2)
T1 construct: gene cobB; expressed from pET28b in E. coli BL21, nickel-purified
T1 sequence (P0A2F2 1-273): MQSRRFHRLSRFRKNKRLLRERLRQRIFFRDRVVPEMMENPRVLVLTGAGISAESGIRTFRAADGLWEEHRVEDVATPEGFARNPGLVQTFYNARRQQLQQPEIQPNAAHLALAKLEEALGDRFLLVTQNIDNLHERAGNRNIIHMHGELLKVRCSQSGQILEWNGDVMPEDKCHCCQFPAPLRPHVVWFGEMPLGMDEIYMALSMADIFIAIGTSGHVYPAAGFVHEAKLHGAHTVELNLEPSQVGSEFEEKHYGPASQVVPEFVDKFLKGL
Experiment: HPLC deacylation assay
Format: biochemical
Settings: 1 mM NAD+, 1 mM acylated H3K27 13-mer peptide as co-substrate, 5 uM enzyme, 6 mM MgCl2, pH 8.0, 37 °C

With `NC(=O)c1ccc[n+]([C@@H]2O[C@H](COP(=O)(O)OP(=O)(O)OC[C@H]3O[C@@H](n4cnc5c(N)ncnc54)[C@H](O)[C@@H]3O)[C@@H](O)[C@H]2O)c1` [NAD^+] the HPLC deacylation assay was “The reactions without NAD^+ were used as the negative controls”.
